In patent US11020398B2, “Amino-pyrrolopyrimidinone compounds and methods of use thereof” (ArQule, Inc., priority 2016, dated 2021):

Target: phosphorylated form of full length BTK (active BTK) (Homo sapiens (Human), UniProt Q06187)
Test: Mobility shift assay (MSA, Caliper LabChip), active BTK assay
Assay type: biochemical
Conditions: Assay type B (MSA using active BTK)
Method: The active BTK assay consists of phosphorylated form of full length BTK. […] The enzyme inhibitor complexes is incubated, before the kinase activation reaction is initiated.
Mobility Shift Assay (MSA)
The active BTK assay consisted of phosphorylated form of full length BTK. […] The enzyme inhibitor complexes was incubated for 30 minutes at the room temperature and the kinase activation reaction was initiated by the addition of 1 μM Srctide peptide substrate and […].

Chain of phosphorylated form of full length BTK (active BTK) (Q06187 whole entry): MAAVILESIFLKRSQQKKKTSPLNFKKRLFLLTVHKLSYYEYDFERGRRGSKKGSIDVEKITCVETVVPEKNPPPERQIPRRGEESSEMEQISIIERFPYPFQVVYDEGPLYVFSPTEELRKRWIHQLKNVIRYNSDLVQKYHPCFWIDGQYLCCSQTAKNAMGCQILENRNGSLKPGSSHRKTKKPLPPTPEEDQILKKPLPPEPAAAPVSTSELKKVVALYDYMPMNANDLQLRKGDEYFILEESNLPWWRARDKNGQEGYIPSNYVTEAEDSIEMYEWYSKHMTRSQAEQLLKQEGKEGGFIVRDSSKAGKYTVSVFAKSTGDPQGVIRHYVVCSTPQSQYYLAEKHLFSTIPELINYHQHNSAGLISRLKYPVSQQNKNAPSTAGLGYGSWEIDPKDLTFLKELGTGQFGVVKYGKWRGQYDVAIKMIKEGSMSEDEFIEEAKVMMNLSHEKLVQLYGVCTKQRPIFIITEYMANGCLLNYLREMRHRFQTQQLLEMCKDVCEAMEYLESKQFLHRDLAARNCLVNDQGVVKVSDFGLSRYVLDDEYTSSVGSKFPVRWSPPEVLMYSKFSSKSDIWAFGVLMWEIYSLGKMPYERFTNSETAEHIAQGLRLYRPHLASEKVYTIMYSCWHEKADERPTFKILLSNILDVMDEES

Compound | IC50
COC1CN([C@H]2CC[C@@H](Nc3ncnc4[nH]cc(C(=O)c5ccccc5Cl)c34)CC2)C1 [Compound I-109, (2-chlorophenyl)(4-((cis-4-(3-methoxyazetidin-1-yl)cyclohexyl)amino)-7H-pyrrolo[2,3-d]pyrimidin-5-yl)methanone] | 3.2 nM
CC1(O)CN([C@H]2CC[C@@H](Nc3ncnc4[nH]cc(C(=O)c5ccccc5Cl)c34)CC2)C1 [Compound I-111, (2-chlorophenyl)(4-((cis-4-(3-hydroxy-3-methylazetidin-1-yl)cyclohexyl)amino)-7H-pyrrolo[2,3-d]pyrimidin-5-yl)methanone] | 3 nM
COC1CN([C@H]2CC[C@H](Nc3ncnc4[nH]cc(C(=O)c5ccccc5Cl)c34)CC2)C1 [Compound I-110, (2-chlorophenyl)(4-((trans-4-(3-methoxyazetidin-1-yl)cyclohexyl)amino)-7H-pyrrolo[2,3-d]pyrimidin-5-yl)methanone] | 16 nM
CC(=O)N[C@@H](C)[C@@H]1CC[C@@H](Nc2ncnc3[nH]cc(C(=O)c4ccccc4Cl)c23)CO1 [Compound I-116, N—((S)-1-((2S,5R)-5-((5-(2-chlorobenzoyl)-7H-pyrrolo[2,3-d]pyrimidin-4-yl)amino)tetrahydro-2H-pyran-2-yl)ethyl)acetamide] | 5.9 nM
N[C@H]1CC[C@@H](Nc2ncnc3[nH]cc(C(=O)c4cccc(NS(=O)(=O)c5ccccc5)c4)c23)CC1 [Compound I-121, N-(3-(4-((cis-4-aminocyclohexyl)amino)-7H-pyrrolo[2,3-d]pyrimidine-5-carbonyl)phenyl)benzenesulfonamide] | 7.3 nM
COC[C@]1(O)CC[C@H](Nc2ncnc3[nH]cc(C(=O)c4ccccc4Cl)c23)CC1 [Compound I-107, (2-chlorophenyl)(4-((trans-4-hydroxy-4-(methoxymethyl)cyclohexyl)amino)-7H-pyrrolo[2,3-d]pyrimidin-5-yl)methanone] | 12 nM
CC(C)(O)C(=O)N[C@H]1CC[C@@H](Nc2ncnc3[nH]cc(C(=O)c4ccccc4Cl)c23)CC1 [Compound I-115, N-(cis-4-((5-(2-chlorobenzoyl)-7H-pyrrolo[2,3-d]pyrimidin-4-yl)amino)cyclohexyl)-2-hydroxy-2-methylpropanamide] | 5.8 nM
O=C(c1ccc(Oc2ccccc2)cc1Cl)c1c[nH]c2ncnc(N[C@H]3CC[C@H](O)[C@H](O)C3)c12 (racemic) [Compound I-180, rac-(2-chloro-4-phenoxyphenyl)(4-(((1S,3R,4S)-3,4-dihydroxycyclohexyl)amino)-7H-pyrrolo[2,3-d]pyrimidin-5-yl)methanone] | 1.8 nM
CC(C)(C)OC(=O)N[C@H]1C[C@@H](Nc2ncnc3[nH]cc(C(=O)c4ccc(Oc5ccccc5)cc4)c23)C1 [Compound I-186, tert-butyl (cis-3-((5-(4-phenoxybenzoyl)-7H-pyrrolo[2,3-d]pyrimidin-4-yl)amino)cyclobutyl)carbamate] | 12 nM
C[C@H](O)C(=O)N[C@@H](C)[C@@H]1CC[C@@H](Nc2ncnc3[nH]cc(C(=O)c4ccc(Oc5ccccc5)cc4Cl)c23)CO1 [Compound I-208, (S)—N—((S)-1-((2S,5R)-5-((5-(2-chloro-4-phenoxybenzoyl)-7H-pyrrolo[2,3-d]pyrimidin-4-yl)amino)tetrahydro-2H-pyran-2-yl)ethyl)-2-hydroxypropanamide] | 3.1 nM
C[C@]1(O)CC[C@H](Nc2ncnc3[nH]cc(C(=O)c4ccc(Oc5ccccc5)cc4Cl)c23)CC1 [Compound I-201, (2-chloro-4-phenoxyphenyl)(4-((trans-4-hydroxy-4-methylcyclohexyl)amino)-7H-pyrrolo[2,3-d]pyrimidin-5-yl)methanone] | 1.5 nM
CC(C)(O)C(=O)N[C@H]1CC[C@@H](Nc2ncnc3[nH]cc(C(=O)c4ccc(Oc5ccccc5)cc4)c23)CC1 [Compound I-203, 2-hydroxy-2-methyl-N-(cis-4-((5-(4-phenoxybenzoyl)-7H-pyrrolo[2,3-d]pyrimidin-4-yl)amino)cyclohexyl)propanamide] | 1.4 nM
O=C(c1ccc(Oc2ccccc2)cc1)c1c[nH]c2ncnc(N[C@@H]3CC[C@@H](C(=O)NC[C@@H](O)CO)OC3)c12 [Compound I-176, (2S,5R)—N—((R)-2,3-dihydroxypropyl)-5-((5-(4-phenoxybenzoyl)-7H-pyrrolo[2,3-d]pyrimidin-4-yl)amino)tetrahydro-2H-pyran-2-carboxamide] | 2.5 nM
C[C@H](NC(=O)[C@@H](C)O)[C@@H]1CC[C@@H](Nc2ncnc3[nH]cc(C(=O)c4ccc(Oc5ccccc5)cc4Cl)c23)CO1 [Compound I-213, (R)—N—((S)-1-((2S,5R)-5-((5-(2-chloro-4-phenoxybenzoyl)-7H-pyrrolo[2,3-d]pyrimidin-4-yl)amino)tetrahydro-2H-pyran-2-yl)ethyl)-2-hydroxypropanamide] | 2.5 nM
COC[C@]1(O)CC[C@@H](Nc2ncnc3[nH]cc(C(=O)c4ccccc4Cl)c23)CC1 [Compound I-108, (2-chlorophenyl)(4-((cis-4-hydroxy-4-(methoxymethyl)cyclohexyl)amino)-7H-pyrrolo[2,3-d]pyrimidin-5-yl)methanone] | 7 nM
CC(=O)N[C@H]1C[C@H](Nc2ncnc3[nH]cc(C(=O)c4ccc(Oc5ccccc5)cc4)c23)C1 [Compound I-199, N-(trans-3-((5-(4-phenoxybenzoyl)-7H-pyrrolo[2,3-d]pyrimidin-4-yl)amino)cyclobutyl)acetamide] | 6.8 nM
CC(C)(C)OC(=O)N[C@H]1C[C@H](Nc2ncnc3[nH]cc(C(=O)c4ccc(Oc5ccccc5)cc4)c23)C1 [Compound I-185, tert-butyl (trans-3-((5-(4-phenoxybenzoyl)-7H-pyrrolo[2,3-d]pyrimidin-4-yl)amino)cyclobutyl)carbamate] | 57 nM
C[C@@H](O)[C@@H]1CC[C@@H](Nc2ncnc3[nH]cc(C(=O)c4ccc(Oc5cccc(Cl)c5)cc4Cl)c23)CO1 [Compound I-183, (2-chloro-4-(3-chlorophenoxy)phenyl)(4-(((3R,6S)-6-((R)-1-hydroxyethyl)tetrahydro-2H-pyran-3-yl)amino)-7H-pyrrolo[2,3-d]pyrimidin-5-yl)methanone] | 2.2 nM
CC(C)(O)C(=O)N[C@H]1CC[C@@H](Nc2ncnc3[nH]cc(C(=O)c4ccc(Oc5ccccc5)cc4Cl)c23)CC1 [Compound I-194, N-(cis-4-((5-(2-chloro-4-phenoxybenzoyl)-7H-pyrrolo[2,3-d]pyrimidin-4-yl)amino)cyclohexyl)-2-hydroxy-2-methylpropanamide] | 1.5 nM
C[C@@H](O)C(=O)NC[C@@H]1CC[C@@H](Nc2ncnc3[nH]cc(C(=O)c4ccc(Oc5ccccc5)cc4)c23)CO1 [Compound I-217, (R)-2-hydroxy-N-(((2S,5R)-5-((5-(4-phenoxybenzoyl)-7H-pyrrolo[2,3-d]pyrimidin-4-yl)amino)tetrahydro-2H-pyran-2-yl)methyl)propanamide] | 3.2 nM
CC(O)CCCCC(=O)N[C@H]1CC[C@@H](Nc2ncnc3[nH]cc(C(=O)c4ccc(Oc5ccccc5)cc4Cl)c23)CC1 (mixture of isomers) [Compound I-212, rac-N-(cis-4-((5-(2-chloro-4-phenoxybenzoyl)-7H-pyrrolo[2,3-d]pyrimidin-4-yl)amino)cyclohexyl)-6-hydroxyheptanamide] | 2.9 nM
C[C@H](O)C(=O)N[C@@H](C)[C@@H]1CC[C@@H](Nc2ncnc3[nH]cc(C(=O)c4ccc(Oc5ccccc5)cc4)c23)CO1 [Compound I-209, (S)-2-hydroxy-N-((S)-1-((2S,5R)-5-((5-(4-phenoxybenzoyl)-7H-pyrrolo[2,3-d]pyrimidin-4-yl)amino)tetrahydro-2H-pyran-2-yl)ethyl)propanamide] | 4 nM
CC(=O)NC[C@@H]1CC[C@@H](Nc2ncnc3[nH]cc(C(=O)c4ccc(Oc5ccccc5)cc4Cl)c23)CO1 [Compound I-127, N-(((2S,5R)-5-((5-(2-chloro-4-phenoxybenzoyl)-7H-pyrrolo[2,3-d]pyrimidin-4-yl)amino)tetrahydro-2H-pyran-2-yl)methyl)acetamide] | 1.63 nM
Cc1cc(Oc2ccccc2)ccc1C(=O)c1c[nH]c2ncnc(N[C@@H]3CC[C@@H]([C@@H](C)O)OC3)c12 [Compound I-197, (4-(((3R,6S)-6-((R)-1-hydroxyethyl)tetrahydro-2H-pyran-3-yl)amino)-7H-pyrrolo[2,3-d]pyrimidin-5-yl)(2-methyl-4-phenoxyphenyl)methanone] | 1.6 nM
CC(=O)N[C@@H]1CC[C@@H](Nc2ncnc3[nH]cc(C(=O)c4ccc(Oc5ccccc5)cc4)c23)C1 [Compound I-192, N-((1R,3R)-3-((5-(4-phenoxybenzoyl)-7H-pyrrolo[2,3-d]pyrimidin-4-yl)amino)cyclopentyl)acetamide] | 4.4 nM
CS(=O)(=O)Nc1cccc(C(=O)c2c[nH]c3ncnc(N[C@H]4CC[C@@H](N)CC4)c23)c1 [Compound I-120, N-(3-(4-((cis-4-aminocyclohexyl)amino)-7H-pyrrolo[2,3-d]pyrimidine-5-carbonyl)phenyl)methanesulfonamide] | 121 nM
C[C@H](O)C(=O)N[C@H]1CC[C@@H](Nc2ncnc3[nH]cc(C(=O)c4ccc(Oc5ccccc5)cc4Cl)c23)CC1 [Compound I-193, (S)—N-(cis-4-((5-(2-chloro-4-phenoxybenzoyl)-7H-pyrrolo[2,3-d]pyrimidin-4-yl)amino)cyclohexyl)-2-hydroxypropanamide] | 1.2 nM
CC1(N)CN([C@H]2CC[C@@H](Nc3ncnc4[nH]cc(C(=O)c5ccccc5Cl)c34)CC2)C1 [Compound I-113, (4-((cis-4-(3-amino-3-methylazetidin-1-yl)cyclohexyl)amino)-7H-pyrrolo[2,3-d]pyrimidin-5-yl)(2-chlorophenyl)methanone] | 3.6 nM
C[C@H](O)C(=O)N[C@H]1CC[C@@H](Nc2ncnc3[nH]cc(C(=O)c4ccc(Oc5ccccc5)cc4)c23)CC1 [Compound I-202, (S)-2-hydroxy-N-(cis-4-((5-(4-phenoxybenzoyl)-7H-pyrrolo[2,3-d]pyrimidin-4-yl)amino)cyclohexyl)propanamide] | 1 nM
